Tests used:
[1] = PBMC viability assay by MTT; assay type: cell-based, human; conditions: MTT 48 h, non-tumour human PBMC
Protocol: (§1) The SI indicates how selective a compound is for a tumour cell line compared with a non-tumour cell line.
(§2) Human peripheral blood mononuclear cells (PBMCs) were used to determine the selectivity index (SI) and were obtained from healthy volunteers under a protocol approved by the Ethics Committee CAAE: 38257914.7.0000.5259. Immortalized cells were also obtained from the Rio de Janeiro Cell Bank (BCRJ).
(§3) First, 8 mL of blood from each healthy donor (3 people) was collected in a tube with EDTA in a 1:20 ratio to prevent the blood from clotting. In a 15 mL Falcon tube containing 4 mL of Ficoll-Paque, the 8 mL of blood collected was slowly added, letting it fall down the walls of the tube. It was centrifuged (Universal Centrifuge 320R Hettich) for 40 min at 750× g at 21 °C with acceleration 1 and brake 0. After centrifugation, in order to extract the ring of mononuclear cells, the supernatant above it was first carefully discarded so as not to disturb the ring. The ring was then slowly removed and placed in another 15 mL Falcon tube to which pure RPMI-1640 medium was added in a 1:1 ratio and centrifuged for 10 min at 580× g and 21 °C with acceleration 8 and brake 9 [34, 35].
(§4) The supernatant was discarded, and the pellet was resuspended in 1 mL of RPMI-1640 medium supplemented with 10% SBF and 1% antibiotic. An amount of 20 µL of cells were taken from the mixture and added to 380 µL of trypan blue dye for counting in the Neubauer chamber. Considering that 80% of PBMCs are lymphocytes and the rest are monocytes, the cells were plated with the aim of having 10^5 cell/well.

[2] = tested on: human peripheral blood mononuclear cells (hPBMC); experiment: PBMC viability assay by MTT; assay type: cell-based; conditions: MTT 48 h; for Emax: human PBMC, maximum cytotoxic response at 100 µM; for CC50: non-tumour human PBMC
Protocol: as §1, §2, §3, §4

PAMPA—BBB = assay type: in vitro ADME; parameters: key to Classification BBB: permeable (CNS+); non-permeable (CNS−); conditions: for Papp: read-out: Pe. Exp. BBB
Protocol: To obtain information on the permeability potential of LASSBio-2208 on cell membranes, this derivative was tested using the parallel artificial membrane permeability assay (PAMPA) that is used as an in vitro model of passive diffusion and transcellular permeation. In this model, the permeability across two artificial membranes is measured: brain lipid from pig extract in dodecane (called PAMPA—BBB) and L-α soy phosphatidylcholine in dodecane (called PAMPA—TGI).
To perform the permeability assay we used a donor plate where the compounds (tests or controls) are diluted in a buffered medium, characterized by the presence of a synthetic membrane of polyvinylidene fluoride (PVDF) impregnated with a lipid solution, forming a barrier through which the compounds migrate through a diffusion process to the lower plate called the receptor.
The lipid mixture that impregnates the filter has a different constitution for the permeability tests for the blood–brain barrier (brain lipid from pig extract in dodecane) and gastrointestinal tract (L-α soy phosphatidylcholine in dodecane). In the PAMPA—BBB and PAMPA—GIT assays, the optical density values obtained in the reading at each selected wavelength, for each of the compounds were analysed in comparison with the values of several controls. In the case of the BBB, these values were used to elaborate an equation and determine the permeability coefficient (Pe), using a previously elaborated spreadsheet, and, for the PAMPA—GIT, these values were used to determine the absorbed fraction (Fa%), both using the Excel program. The permeability result for PAMPA—GIT classifies the compounds according to the percentage of absorbed fraction (Fa%), as follows: high intestinal permeability (70–100%), medium permeability (30–69%) or low permeability (0–29%), and the samples were diluted from a stock solution of 10 mM. The PAMPA—BBB model classifies the compounds only as follows: permeable (CNS+) or non-permeable (CNS−) and the assays were made from a stock solution of 1 mg for each compound [25, 40, 41, 42].

Plasma stability = assay type: in vitro ADME, rat; conditions: for recovery at 10 μM / half-life at 10 μM: rat plasma diluted with phosphate buffer, pH 7.4; for recovery at 10 μM: rat plasma stability assay; for metabolic stability in rat plasma (in words) / half-life at 10 μM / Elimination Rate Constant (k) / Metabolization Rate: rat plasma; for half-life at 10 μM / Elimination Rate Constant (k) / Metabolization Rate: 37 °C, 10 μM; for Metabolization Rate: 0–240 min
Protocol: Considering that both LASSBio-2208 and LASSBio-1911 have, in their structures, the N-acylhydrazone and hydroxamic acid fragments, both susceptible to metabolic hydrolysis, metabolic stability in plasma was conducted with both compounds.
LASSBio-2208 and LASSBio-1911, in a final concentration of 10 μM from stock solution of 1 mM, was added in 50 μL of rat plasma solution diluted in 250 μL with phosphate buffer (pH 7.4) and was placed in a shaker at 37 °C under vigorous stirring for 0, 30, 60, 120 and 240 min. After each reaction time, 1 mL of cold acetonitrile containing 2 uM internal standard was added to the wells to stop the reaction. The solution was mixed and centrifuged at 24,500× g for 15 min (Universal Centrifuge 320R Hettich). The supernatant (1 mL) was filtrated and placed in vials to be analysed by HPLC.

[3] = Non-specific microsome protein binding; assay type: in vitro ADME; conditions: for fraction unbound at 60 min, 8.3 µM: rat, pH 7.4, liver microsomes 0.5 mg protein/mL, 37 °C, read-out: Percentage of ƒu(mic) (unbound fraction in nonspecific microsomal binding)
Protocol: Once such bonds are formed, the bound fraction would become incapable of being metabolized.
Liver microsomes were diluted with PBS pH 7.4 to a concentration of 0.5 mg protein/mL and 3 µL at 1 mM of the working test compound and solutions were mixed with 357 µL of liver microsome suspension. After mixing, duplicate 200 µL aliquots were immediately removed, while another microtubule acted as the control sample (T 0 h), and were quenched with 400 µL of cold acetonitrile containing analytical internal standards. The other samples were incubated at 37 °C at 100 rpm, for 60 min with the same subsequent treatment.

HDAC-6 = conditions: cited from earlier work
HDAC8 = conditions: cited from earlier work
[4] = tested on: T lymphoblast cell line (MOLT-4); experiment: MTT cell viability assay, MOLT-4; conditions: Homo sapiens
Protocol: (§5) After the incubation time, the plate was centrifuged (Universal centrifuge 320R Hettich, Kirchlengern, Germany) at 440× g, 10 min and 4 °C, then 110 µL of supernatant was removed and 10 µL of MTT solution was added and left to incubate for 3.5 h in the oven at 37 °C and 5% CO2. […] The CC50 was calculated using the GraphPad Prism 9.0 program. Each sample was tested in triplicate in three independent experiments (N3) [32, 33].

[5] = tested on: human leukaemia cell line (CCRF-CEM); experiment: MTT cell viability assay, CCRF-CEM
Protocol: as §5

CCRF-CEM = experiment: SRB cell viability/antiproliferative assay, CCRF-CEM; conditions: Homo sapiens, 48 h

Row | SMILES | CC50 at 48 h [1] [µM] | Emax [2] [%] | CC50 [2] | Classification BBB (PAMPA—BBB) | Papp (PAMPA—BBB) [nm/s] | metabolic stability in rat plasma (in words) (Plasma stability) | recovery at 10 μM (Plasma stability) [%] | half-life at 10 μM (Plasma stability) [h] | Elimination Rate Constant (k) (Plasma stability) | Metabolization Rate (Plasma stability) [%] | fraction unbound at 60 min, 8.3 µM [3] | IC50 (HDAC-6) [µM] | IC50 (HDAC8) [µM] | CC50 ([4]; MOLT-4, 24 h) [µM] | Emax ([4]; MOLT-4, 24 h) [%] | CC50 ([4]; MOLT-4, 48 h) [µM] | Emax ([4]; MOLT-4, 48 h) [%] | CC50 ([4]; MOLT-4, 72 h) [µM] | Emax ([4]; MOLT-4, 72 h) [%] | CC50 ([5]; 24 h) [µM] | other results
1 | CN(C)c1ccc(C(=O)N/N=C/c2ccc(C(=O)NO)cc2)cc1 [LASSBio-1911] | > 100 | 31.1 | no cytotoxic effect | CNS− | 2.9 | high metabolic stability | 73.4 | 6.42 | 0.0018 | 36.14 | 0.004 | 0.015 | 0.23 | 13.8 | 96.5 | 6.15 | 98.9 | 5.27 | 99.2 | 9.69 | Emax ([5]; 24 h): 98%; CC50 ([5]; 48 h): 6.98 µM; Emax ([5]; 48 h): 98.8%; CC50 ([5]; 72 h): 6.92 µM; Emax ([5]; 72 h): 97.1%; CC50 (CCRF-CEM): 25.2 µM; Emax (CCRF-CEM): 69.2%
2 | O=C(NO)c1ccc(/C=N/NC(=O)c2cc(N3CCOCC3)nc(-c3cccc(O)c3)n2)cc1 [LASSBio-2208] | > 100 | 29.9 | no cytotoxic effect | CNS− | 6.9 | high metabolic stability | 75.5 | 14.4 | 0.0008 | 20.61 | 0.937 | 0.0153 | 0.0676 | 7.14 | 84.1 | 8.26 | 83.2 | 7.15 | 91.2 | 27.8 | Pe. Exp. BBB (PAMPA—BBB): low permeation; unbound in nonspecific microsomal binding ([3]; liver microsomes): more than 93%; Emax ([5]; 24 h): 69.4%; CC50 ([5]; 48 h): 8.68 µM; Emax ([5]; 48 h): 91.7%; CC50 ([5]; 72 h): 8.54 µM; Emax ([5]; 72 h): 90.4%; CC50 (CCRF-CEM): > 100 µM

From PMC10974272, “Cytotoxic and Antiproliferative Activity of LASSBio-2208 and the Attempts to Determine Its Drug Metabolism and Pharmacokinetics In Vitro Profile” (Pharmaceuticals, 2024)
